Measurements reported in PMC4251536 (Journal of Natural Products, 2014).

Experiments:
[1] = test system: human lung adenocarcinoma cells; conditions: cited from earlier work
[2] = test system: voltage-gated sodium channels (VGSCs); format: cell-based, mouse; conditions: veratridine-stimulated Na+ influx, murine cerebrocortical neurons
[3] = test system: sodium ion channel in Neuro-2a cells; conditions: read-out: IC50, sodium ion channel blocking activity (veratridine-induced sodium influx), natural product; cited from earlier work

SMILES | cytotoxicity (in words) [1] | fold more potent than the other analogues tested [2] | IC50 [3]
C[C@@H]1CCCC(=O)N(C)/C=C/CC[C@@H](C)C(=O)O[C@@H](C(C)(C)C)C1 [compound 1, (−)-palmyrolide A] | no appreciable cytotoxicity | 3–9 fold | 5.2 µM
C[C@@H]1CCCC(=O)N(C)CCCC[C@@H](C)C(=O)O[C@@H](C(C)(C)C)C1 [compound 5, 17,18-Dihydropalmyrolide A] |  | 3–9 fold | 
C[C@H]1CCCC(=O)N(C)/C=C/CC[C@H](C)C(=O)O[C@H](C(C)(C)C)C1 [compound 3, (+)-palmyrolide A] |  | 3–9 fold | 
